{"source": "patent US12201608B2", "about": "“Methods for treating Parkinson's disease by administering resiniferatoxin” (Sorrento Therapeutics, Inc., priority 2018, dated 2025)", "key": {"[1]": {"experiment": "Pilot tolerability study of intrathecal RTX infusion", "format": "in vivo, C57Bl/6J mice", "procedure": "The purpose of this study was to investigate the effects of single intrathecal administration of RTX on the AAV-A53T mouse model of PD-like pathology. Prior to this study start, a pilot tolerability study was conducted in which 16 male and 16 female C57Bl/6J mice were infused with RTX at two doses (either 0.04 μg or 0.125 μg) and followed up for 24 hours thereafter to observe any possible adverse effects of the treatment.\nOf the 32 total mice used in the pilot study arm, in total 4 mice died during the 24 hour monitoring period after intrathecal infusion of RTX. Two females treated with 0.125 μg dose were found dead in cage within 4-24 hours after infusion due to unknown reason."}, "[2]": {"system": "AAV-A53T mouse model of Parkinson's Disease-like (PD) pathology", "experiment": "Fine motor kinematic gait analysis 7 weeks after AAV infusion", "format": "in vivo, C57Bl/6J male mice", "conditions": "for overall gait analysis score: vs AAV1/2-A53T Vehicle", "procedure": "(§1) For this study, a total of 110 male C57Bl/6J mice two months of age were infused with either AAV-A53T (90 mice) or AAV-Null (20 mice) into substantia nigra unilaterally to induce PD-like pathology or to serve as sham controls, respectively. Mice infused with AAV-Null (empty) vector (“sham-infused” mice) were used in order to control for the effect of the viral infusion. After 7 or 14 days of AAV-A53T mediated disease model induction, the mice were treated with RTX (0.04 μg or 0.125 μg) (5 μL volume, prepared from a 25 μg/ml RTX solution containing Polysorbate 80 at 0.03% w/v, dextrose at 0.05% w/v, Phosphate Buffer at 30 mM, and NaCl 0.54% w/v, pH 7.2, and diluted in saline as needed) by single intrathecal infusion at lumbar spinal cord area. One AAV-Null and AAV-A53T infused group per each time point were treated with vehicle instead of RTX.\nThe mice were then treated with RTX or vehicle by intrathecal infusion 7 or 14 days after AAV infusion. The mice were assigned to treatment groups as follows: • Group 1: 10 male mice sham-infused with AAV-null, and administered vehicle at D7. • Group 2: 15 male mice infused with AAV-A53T, and administered vehicle at D7. • Group 3: 15 male mice infused with AAV-A53T, and administered 0.04 μg of RTX at D7. • Group 4: 15 male mice infused with AAV-A53T, and administered 0.125 μg of RTX at D7. • Group 5: 10 male mice sham-infused with AAV-null, and administered vehicle at D14. • Group 6: 15 male mice infused with AAV-A53T, and administered vehicle at D14. • Group 7: 15 male mice infused with AAV-A53T, and administered 0.04 μg of RTX at D14. • Group 8: 15 male mice infused with AAV-A53T, and administered 0.125 μg of RTX at D14.\nThe fine motor skills of the mice were evaluated 7 weeks post infusion (MotoRater, TSE Systems, Homburg, Germany) using walking mode. On the day of testing the mice were marked in appropriate points of body, such as joints of limbs and parts of tail to ease the data analysis process. The movement data was captured using a high-speed camera (300 frames/second) from three different dimensions, from below and both sides. Different gait patterns and movements were analyzed using a custom-made automated analysis system. The analyzed parameters include: 1) general gait pattern parameters (stride time and speed, step width, stance and swing time during a stride, interlimb coordination), 2) body posture and balance (toe clearance, iliac crest and hip height, hind limb protraction and retraction, tail position and movement), and 3) fine motor skills (swing speed during a stride, jerk metric during swing phase, angle ranges and deviations of different joints, vertical and horizontal head movement).\nThe gait parameters always have several (and complex) inter-correlations. For example, a shorter stride duration and longer step lengths lead to higher speed. Different “gait features”, which are manifested in sets of highly correlating parameters, can be identified using Principal Component Analysis (PCA). Principal Component Analysis is a statistical tool to compact the information in a multivariate data set, reveal correlations between original variables, and ultimately, create a small set of new and sensitive uncorrelated parameters, the principal components (PC).\nPCA is a linear transformation based on principal component coefficients and eigenvectors. The transformed, new, uncorrelated variables are called the PC scores. The first principal component (PC) corresponds to such linear combination of data which has the largest possible variance. The second PC has again the largest possible variance of what is left when the proportion of the first PC is discarded, and so on for the rest of the PCs. The eigen vectors also reveal information about the internal structure of the data, i.e., mutually correlated parameters. Each PC score represent combined information of all the parameters which are emphasized in the corresponding PC. […]"}, "[3]": {"experiment": "Body weight monitoring in AAV-A53T / AAV-Null infused mice", "format": "in vivo, C57Bl/6J male mice", "conditions": "single intrathecal 0.04 μg or 0.125 μg, 7 or 14 days after AAV-A53T or AAV-Null infusion, 8 week study, two-way ANOVA", "procedure": "as §1\nThe mice were then treated with RTX or vehicle by intrathecal infusion 7 or 14 days after AAV infusion. […]\nBody weight of the animals was monitored two times per week. […] Dopamine and its metabolites were analyzed from ipsilateral and contralateral striata by high performance liquid chromatography (HPLC).\nBody weight of the mice was measured twice-per week (on Mondays and Fridays) for the whole study duration."}, "[4]": {"conditions": "D7 both doses, vs AAV-A53T Vehicle, p<0.05 unpaired t-test"}, "[5]": {"conditions": "D7 high dose, vs AAV-A53T Vehicle, p<0.05 unpaired t-test"}}, "note": "Entries after “also recorded” stand apart in the source; their conditions may differ.", "data": [{"smiles": "C=C(C)[C@]12C[C@@H](C)[C@@]34O[C@](Cc5ccccc5)(O[C@@H]1[C@@H]3C=C(COC(=O)Cc1ccc(O)c(OC)c1)C[C@]1(O)C(=O)C(C)=C[C@@H]41)O2", "note": "[RTX, Resiniferatoxin]", "values": [{"measurement": "adverse effects in the rest of the mice", "setting": "[1]; 0.04 μg or 0.125 μg, 24 hour follow-up", "value": "No significant adverse effects"}, {"measurement": "found dead in cage within 4-24 hours after infusion", "setting": "[1]; 0.125 μg dose, unknown reason", "value": "Two females"}, {"measurement": "died immediately after infusion", "setting": "[1]; 0.125 μg dosing group", "value": "one female and one male mouse"}, {"measurement": "mice died during the 24 hour monitoring period after intrathecal infusion", "setting": "[1]; 32 mice total (16 male, 16 female), RTX 0.04 μg or 0.125 μg intrathecal", "value": 4, "unit": "mice"}, {"measurement": "diagonal gait", "setting": "[2]; [4]", "value": "significantly recovered"}, {"measurement": "hip ROM", "setting": "[2]; [4]", "value": "significantly recovered"}, {"measurement": "hind limb stance time", "setting": "[2]; [5]", "value": "significantly recovered"}, {"measurement": "hip ROM deviation", "setting": "[2]; [5]", "value": "significantly recovered"}, {"measurement": "homolateral and homologous gait", "setting": "[2]; [5]", "value": "significantly recovered"}, {"measurement": "minimum knee angle", "setting": "[2]; [5]", "value": "significantly recovered"}, {"measurement": "single and double support", "setting": "[2]; [5]", "value": "significantly recovered"}, {"measurement": "stride time", "setting": "[2]; [5]", "value": "significantly recovered"}, {"measurement": "support diagonal", "setting": "[2]; [5]", "value": "significantly recovered"}, {"measurement": "support three", "setting": "[2]; [5]", "value": "significantly recovered"}, {"measurement": "head rotation", "setting": "[2]; D14 both doses, vs AAV-A53T Vehicle, p<0.05 unpaired t-test", "value": "significantly recovered"}, {"measurement": "hip ROM", "setting": "[2]; D14 high dose, vs AAV-A53T Vehicle, p<0.05 unpaired t-test", "value": "significantly recovered"}, {"measurement": "overall gait analysis score", "setting": "[2]; RTX 0.04 μg at D7, Dunnett's test p=0.0063", "value": "significant treatment effect; also recorded: significantly improved"}, {"measurement": "overall gait analysis score", "setting": "[2]; RTX 0.125 μg at D7, Dunnett's test p=0.0011", "value": "significant treatment effect; also recorded: significantly improved"}, {"measurement": "overall gait analysis score", "setting": "[2]; both RTX doses at D14, p>0.05 one-way ANOVA", "value": "statistically non-significant trend towards the respective AAV-Null group; also recorded: statistically non-significant trending effect; also recorded: not statistically significant; also recorded: trend towards the AAV1/2-Null group"}, {"measurement": "recovery of motor functions / motor skills", "setting": "[2]; early RTX treatment (D7), analyzed 7 weeks after AAV infusion", "value": "significant rescuing effect; also recorded: dose-dependent recovery of motor functions"}, {"measurement": "body weight", "setting": "[3]", "value": "steady weight gain was observed similarly in vehicle and RTX treated groups; also recorded: No significant differences between the groups"}, {"measurement": "body weight", "setting": "[3]; listed as resiniferatoxin", "value": "No significant differences between the groups"}]}]}
